Earlier results on two compounds are cited in US20170240913A1, “Methods and Materials for Producing Coreless Fruit” (The New Zealand Institute for Plant and Food Research …, priority 2014, published 2017).

Each structure is given as a SMILES string.

The data set deals with frost-damaged Bramley's Seedling. Conditions: frost-damaged Bramley's Seedling (triploid, partially self-fertile).

For the compound `c1ccc(CNc2ncnc3c2ncn3C2CCCCO2)cc1` (centres unmarked) [SD8339], the parthenocarpy entry is given as “no additional benefits”.

Turning to `C=C1C[C@]23C[C@@]1(O)CC[C@H]2[C@@]12C=C[C@H](O)[C@@](C)(C(=O)O1)[C@H]2[C@@H]3C(=O)O` [GA3], the parthenocarpy entry was “not effective”.
